Assay results as given in patent EP1953147A1, “HETEROCYCLIC COMPOUND AND MEDICINAL APPLICATION THEREOF” (priority 2005, dated 2007).
pIC50: −log10 of the molar value.

Tested on: ΔG/SEAP/HCV E1E2
Test: Effect of test substance on cell infection with HCV pseudotype virus (SEAP reporter assay in HepG2 cells)
Assay type: cell-based
Details: Hepatitis C virus

| SMILES | pIC50 |
| --- | --- |
| COc1cc(OC)cc(-c2nn(-c3cc(N4CCCC4)ccc3C(F)(F)F)c(=O)c3c2CCN3)c1 [Example 37, 4-(3,5-dimethoxy-phenyl)-6-(5-pyrrolidin-1-yl-2-trifluoromethyl-phenyl)-1,2,3,6-tetrahydro-pyrrolo[2,3-d]pyridazin-7-one] | > 7.00 |
| COc1cc(OC)cc(-c2nn(-c3cc(N4CC[C@H](O)C4)ccc3S(C)(=O)=O)c(=O)c3c2CCC3)c1 [Example 38, 4-(3,5-dimethoxy-phenyl)-2-[5-((S)-3-hydroxy-pyrrolidin-1-yl)-2-methanesulfonyl-phenyl]-2,5,6,7-tetrahydro-cyclopenta[d]pyridazin-1-one] | > 7.00 |
| COc1cc(OC)cc(-c2nn(-c3cc(N4CC[C@H](O)C4)ccc3C(F)(F)F)c(=O)c3c2CCN3CC(=O)NCCNC(C)=O)c1 [Example 39, N-(2-acetylamino-ethyl)-2-{4-(3,5-dimethoxy-phenyl)-6-[5-((S)-3-hydroxy-pyrrolidin-1-yl)-2-trifluoromethyl-phenyl]-7-oxo-2,3,6,7-tetrahydro-pyrrolo[2,3-d]pyridazin-1-yl}-acetamide] | > 7.00 |
| COc1cc(OC)cc(-c2nn(-c3cc(N4CC[C@H](O)C4)ccc3C(F)(F)F)c(=O)c3c2CCN3CC(=O)NCCCCCCNC(C)=O)c1 [Example 40, N-(6-acetylamino-hexyl)-2-{4-(3,5-dimethoxy-phenyl)-6-[5-((S)-3-hydroxy-pyrrolidin-1-yl)-2-trifluoromethyl-phenyl]-7-oxo-2,3,6,7-tetrahydro-pyrrolo[2,3-d]pyridazin-1-yl}-acetamide] | > 7.00 |
| COc1cc(OC)cc(-c2nn(-c3cc(N4CC[C@H](O)C4)ccc3C(F)(F)F)c(=O)c3c2CCN3CC(=O)N2CCN(C(C)=O)CC2)c1 [Example 41, 1-[2-(4-acetyl-piperazin-1-yl)-2-oxo-ethyl]-4-(3,5-dimethoxy-phenyl)-6-[5-((S)-3-hydroxy-pyrrolidin-1-yl)-2-trifluoromethyl-phenyl]-1,2,3,6-tetrahydro-pyrrolo[2,3-d]pyridazin-7-one] | > 7.00 |
| COc1cc(OC)cc(-c2nn(-c3cc(N4CC[C@H](O)C4)ccc3F)c(=O)c3c2CCC3)c1 [Example 42, 4-(3,5-dimethoxy-phenyl)-2-[2-fluoro-5-((S)-3-hydroxy-pyrrolidin-1-yl)-phenyl]-2,5,6,7-tetrahydro-cyclopenta[d]pyridazin-1-one] | 5.00 to 7.00 |
| COc1cccc(-c2nn(-c3cc(N4CC[C@H](O)C4)ccc3C(F)(F)F)c(=O)c3c2CCN3)c1 [Example 43, 6-[5-((S)-3-hydroxy-pyrrolidin-1-yl)-2-trifluoromethyl-phenyl]-4-(3-methoxy-phenyl)-1,2,3,6-tetrahydro-pyrrolo[2,3-d]pyridazin-7-one] | > 7.00 |
| COc1cc(OC)cc(-c2nn(-c3cc(N4CC[C@H](O)C4)ccc3C(F)(F)F)c(=O)c3c2CCN3CC(=O)NCCCCNC(C)=O)c1 [Example 44, N-(4-acetylamino-butyl)-2-{4-(3,5-dimethoxy-phenyl)-6-[5-((S)-3-hydroxy-pyrrolidin-1-yl)-2-trifluoromethyl-phenyl]-7-oxo-2,3,6,7-tetrahydro-pyrrolo[2,3-d]pyridazin-1-yl}-acetamide] | > 7.00 |
| COc1cncc(-c2nn(-c3cc(N4CC[C@H](O)C4)ccc3C(F)(F)F)c(=O)c3c2CCC3)c1 [Example 45, 2-[5-((S)-3-hydroxy-pyrrolidin-1-yl)-2-trifluoromethyl-phenyl]-4-(5-methoxy-pyridin-3-yl)-2,5,6,7-tetrahydro-cyclopenta[d]pyridazin-1-one] | > 7.00 |
| CCCCCC(=O)NCCNC(=O)CN1CCc2c(-c3cc(OC)cc(OC)c3)nn(-c3cc(N4CC[C@H](O)C4)ccc3C(F)(F)F)c(=O)c21 [Example 46, hexanoic acid [2-(2-{4-(3,5-dimethoxy-phenyl)-6-[5-((S)-3-hydroxy-pyrrolidin-1-yl)-2-trifluoromethylphenyl]-7-oxo-2,3,6,7-tetrahydro-pyrrolo[2,3-d]pyridazin-1-yl}-acetylamino)-ethyl]-amide] | > 7.00 |
| COC(=O)CCNc1ccc(C(F)(F)F)c(-n2nc(-c3cc(OC)cc(OC)c3)c3c(c2=O)NCC3)c1 [Example 47, 3-{3-[4-(3,5-dimethoxy-phenyl)-7-oxo-1,2,3,7-tetrahydro-pyrrolo[2,3-d]pyridazin-6-yl]-4-trifluoromethyl-phenylamino}-propionic acid methyl ester] | > 7.00 |
| COc1cc(OC)cc(-c2nn(-c3cc(N4CC[C@H](O)C4)ccc3C(F)(F)F)c(=O)c3c2CCN3CC#N)c1 [Example 48, {4-(3,5-dimethoxy-phenyl)-6-[5-((S)-3-hydroxy-pyrrolidin-1-yl)-2-trifluoromethyl-phenyl]-7-oxo-2,3,6,7-tetrahydro-pyrrolo[2,3-d]pyridazin-1-yl}-acetonitrile] | > 7.00 |
| COc1cc(OC)cc(-c2nn(-c3cc(N4CC[C@H](O)C4)ccc3C(F)(F)F)c(=O)c3c2CCN3CCN)c1 [Example 49, 1-(2-amino-ethyl)-4-(3,5-dimethoxy-phenyl)-6-[5-((S)-3-hydroxy-pyrrolidin-1-yl)-2-trifluoromethylphenyl]-1,2,3,6-tetrahydro-pyrrolo[2,3-d]pyridazin-7-one] | > 7.00 |
| COc1cc(OC)cc(-c2nn(-c3cc(F)ccc3C(F)(F)F)c(=O)c3c2CCN3)c1 [Example 50, 4-(3,5-dimethoxy-phenyl)-6-(5-fluoro-2-trifluoromethyl-phenyl)-1,2,3,6-tetrahydro-pyrrolo[2,3-d]pyridazin-7-one] | 5.00 to 7.00 |
| COc1cc(OC)cc(-c2nn(-c3cc(Cl)ccc3C(F)(F)F)c(=O)c3c2CCN3)c1 [Example 51, 6-(5-chloro-2-trifluoromethyl-phenyl)-4-(3,5-dimethoxy-phenyl)-1,2,3,6-tetrahydro-pyrrolo[2,3-d]pyridazin-7-one] | 5.00 to 7.00 |
| COc1cc(OC)cc(-c2nn(-c3cccc(N4CC[C@H](O)C4)c3)c(=O)c3c2CCN3)c1 [Example 52, 4-(3,5-dimethoxy-phenyl)-6-[3-((S)-3-hydroxy-pyrrolidin-1-yl)-phenyl]-1,2,3,6-tetrahydro-pyrrolo[2,3-d]pyridazin-7-one] | 5.00 to 7.00 |
| CCCOc1ccc(C(F)(F)F)c(-n2nc(-c3cc(OC)cc(OC)c3)c3c(c2=O)CCC3)c1 [Example 53, 4-(3,5-dimethoxy-phenyl)-2-(5-propoxy-2-trifluoromethyl-phenyl)-2,5,6,7-tetrahydro-cyclopenta[d]pyridazin-1-one] | > 7.00 |
| COc1cc(OC)cc(-c2nn(-c3cc(N4CC[C@H](O)C4)ccc3C(F)(F)F)c(=O)c3c2CCN3C)c1 [Example 54, 4-(3,5-dimethoxy-phenyl)-6-[5-((S)-3-hydroxy-pyrrolidin-1-yl)-2-trifluoromethyl-phenyl]-1-methyl-1,2,3,6-tetrahydro-pyrrolo[2,3-d]pyridazin-7-one] | > 7.00 |
| CCN1CCc2c(-c3cc(OC)cc(OC)c3)nn(-c3cc(N4CC[C@H](O)C4)ccc3C(F)(F)F)c(=O)c21 [Example 55, 4-(3,5-dimethoxy-phenyl)-1-ethyl-6-[5-((S)-3-hydroxy-pyrrolidin-1-yl)-2-trifluoromethyl-phenyl]-1,2,3,6-tetrahydro-pyrrolo[2,3-d]pyridazin-7-one] | > 7.00 |
| COc1cc(OC)cc(-c2nn(-c3cc(N4CC[C@H](O)C4)ccc3C(F)(F)F)c(=O)c3c2CCN3CC(=O)NCCCN2CCN(CCCNC(C)=O)CC2)c1 [Example 56, N-{3-[4-(3-acetylamino-propyl)-piperazin-1-yl]-propyl}-2-{4-(3,5-dimethoxy-phenyl)-6-[5-((S)-3-hydroxy-pyrrolidin-1-yl)-2-trifluoromethyl-phenyl]-7-oxo-2,3,6,7-tetrahydro-pyrrolo[2,3-d]pyridazin-1-yl}-acetamide] | 5.00 to 7.00 |
| CCC(=O)Nc1ccc(C(F)(F)F)c(-n2nc(-c3cc(OC)cc(OC)c3)c3c(c2=O)CCC3)c1 [Example 57, N-{3-[4-(3,5-dimethoxy-phenyl)-1-oxo-1,5,6,7-tetrahydro-cyclopenta[d]pyridazin-2-yl]-4-trifluoromethyl-phenyl}-propionamide] | > 7.00 |
| COc1cccc(-c2nn(-c3cc(N4CC[C@H](O)C4)ccc3C(F)(F)F)c(=O)c3c2CCC3)c1 [Example 58, 2-[5-((S)-3-hydroxy-pyrrolidin-1-yl)-2-trifluoromethyl-phenyl]-4-(3-methoxy-phenyl)-2,5,6,7-tetrahydro-cyclopenta[d]pyridazin-1-one] | > 7.00 |
| COc1cc(OC)cc(-c2nn(-c3cc(N4CC[C@@H](O)C4)ccc3C(F)(F)F)c(=O)c3c2CCN3C(=O)OC(C)(C)C)c1 [Example 59, 4-(3,5-dimethoxy-phenyl)-6-[5-((R)-3-hydroxy-pyrrolidin-1-yl)-2-trifluoromethyl-phenyl]-7-oxo-2,3,6,7-tetrahydro-pyrrolo[2,3-d]pyridazine-1-carboxylic acid tert-butyl ester] | > 7.00 |
| CCOC(=O)N1CCc2c(-c3cc(OC)cc(OC)c3)nn(-c3cc(N4CC[C@H](O)C4)ccc3C(F)(F)F)c(=O)c21 [Example 60, 4-(3,5-dimethoxy-phenyl)-6-[5-((S)-3-hydroxy-pyrrolidin-1-yl)-2-trifluoromethyl-phenyl]-7-oxo-2,3,6,7-tetrahydro-pyrrolo[2,3-d]pyridazine-1-carboxylic acid ethyl ester] | > 7.00 |
| CCOC(=O)N1CCc2c(-c3cc(O)cc(O)c3)nn(-c3cc(N4CC[C@H](O)C4)ccc3C(F)(F)F)c(=O)c21 [Example 61, 4-(3,5-dihydroxy-phenyl)-6-[5-((S)-3-hydroxy-pyrrolidin-1-yl)-2-trifluoromethyl-phenyl]-7-oxo-2,3,6,7-tetrahydro-pyrrolo[2,3-d]pyridazine-1-carboxylic acid ethyl ester] | 5.00 to 7.00 |
| CCOc1ccc(C(F)(F)F)c(-n2nc(-c3cc(OC)cc(OC)c3)c3c(c2=O)CCC3)c1 [Example 62, 4-(3,5-dimethoxy-phenyl)-2-(5-ethoxy-2-trifluoromethyl-phenyl)-2,5,6,7-tetrahydro-cyclopenta[d]pyridazin-1-one] | > 7.00 |
| COc1cc(OC)cc(-c2nn(-c3cc(OCCO)ccc3C(F)(F)F)c(=O)c3c2CCC3)c1 [Example 63, 4-(3,5-dimethoxy-phenyl)-2-[5-(2-hydroxy-ethoxy)-2-trifluoromethyl-phenyl]-2,5,6,7-tetrahydro-cyclopenta[d]pyridazin-1-one] | > 7.00 |
